Test results taken from the supplement of paper PMC10307832.

Experiments:
Test in all cases: relative viability (nuclei count vs DMSO), 5 days (fraction); higher = more cells survive
Mirin + Olaparib = compound: N=C1NC(=O)/C(=C/c2ccc(O)cc2)S1 [Mirin] + O=C(c1cc(Cc2n[nH]c(=O)c3ccccc23)ccc1F)N1CCN(C(=O)C2CC2)CC1 [Olaparib] (partner 8 µM)
Outline: (§1)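 Lung cancer cell lines were pin-tool dosed in 1536-well plates on the day after seeding, with either a lone drug or a fixed anchor-drug dose plus five library-drug doses (not always all listed) in √10 steps. Nuclei were counted on 4× images after 5 days. Relative viability is the ratio of treated-well to vehicle-well nuclei counts, with each value a median of duplicate plates.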

[1] = compound: CCC1=CN=CN=C1N2CCN(CC2)CC3=NC4=C(N3)C=C(C=C4)C(F)(F)F + O=C(CCCCCCC(=O)Nc1ccccc1)NO [Vorinostat] (partner 1 µM)
Outline: as §1

Mirin + Navitoclax = compound: N=C1NC(=O)/C(=C/c2ccc(O)cc2)S1 [Mirin] + CC1(C)CCC(c2ccc(Cl)cc2)=C(CN2CCN(c3ccc(C(=O)NS(=O)(=O)c4ccc(N[C@H](CCN5CCOCC5)CSc5ccccc5)c(S(=O)(=O)C(F)(F)F)c4)cc3)CC2)C1 [Navitoclax] (partner 0.5 µM)
Outline: as §1

[2] = compound: CCC1=CN=CN=C1N2CCN(CC2)CC3=NC4=C(N3)C=C(C=C4)C(F)(F)F + C[C@@H](Oc1cc(-c2cnn(C3CCNCC3)c2)cnc1N)c1c(Cl)ccc(F)c1Cl [Crizotinib] (partner 1 µM)
Outline: as §1

Cell Line	relative viability (Mirin + Olaparib; first compound 0.25 µM)	relative viability (Mirin + Olaparib; first compound 0.7906 µM)	relative viability (Mirin + Olaparib; first compound 2.5 µM)	relative viability (Mirin + Olaparib; first compound 7.906 µM)	relative viability (Mirin + Olaparib; first compound 25 µM)	relative viability ([1]; first compound 0.04 µM)	relative viability ([1]; first compound 0.1265 µM)	relative viability ([1]; first compound 0.4 µM)	relative viability ([1]; first compound 4 µM)	relative viability (Mirin + Navitoclax; first compound 0.25 µM)	relative viability (Mirin + Navitoclax; first compound 2.5 µM)	relative viability (Mirin + Navitoclax; first compound 7.906 µM)	relative viability (Mirin + Navitoclax; first compound 25 µM)	relative viability ([1]; first compound 1.265 µM)	relative viability ([2]; first compound 0.04 µM)	relative viability ([2]; first compound 0.1265 µM)	relative viability ([2]; first compound 0.4 µM)	relative viability ([2]; first compound 4 µM)	relative viability (Mirin + Navitoclax; first compound 0.7906 µM)	relative viability ([2]; first compound 1.265 µM)
SW 900	0.842	0.959	0.848	0.913	0.767	0.454	0.45	0.403	0.422	–	–	–	–	–	–	–	–	–	–	–
NCI-H1944	0.377	0.421	0.391	0.328	0.296	0.664	0.441	0.663	0.524	1.03	1.07	1.08	0.861	0.384	1.21	0.988	1.13	1.23	–	–
NCI-H838	0.788	0.811	0.829	0.749	0.529	0.785	0.695	0.821	0.662	1.19	1.31	1.19	1.11	0.66	0.917	0.845	0.908	1.27	1.24	0.947
NCI-H1650	0.789	0.929	0.817	0.755	0.732	0.635	0.73	0.503	0.636	1.05	1.21	1.21	1.06	0.359	0.942	0.853	1.03	1.42	1.53	1.06
HCC-827	0.627	0.704	0.647	0.626	0.623	0.895	0.856	0.788	0.744	1.01	1	1.07	1.27	0.781	0.89	0.903	0.945	0.917	1	0.973
HCC-366	0.377	0.376	0.346	0.426	0.335	0.365	0.3	0.296	0.417	1.1	1.06	1.1	0.958	0.332	0.622	0.493	0.579	1.15	1.02	–
HARA	1.08	–	0.735	0.874	0.495	0.542	0.492	0.57	0.466	1.07	1.14	1.28	1.2	0.556	1.06	0.972	1.01	1.18	1.21	1.03
NCI-H441	0.468	0.582	0.674	0.412	0.401	0.777	0.8	0.659	0.868	0.49	0.571	0.447	0.483	0.651	0.742	0.627	0.789	1.04	0.802	0.859
LXF-289	1.04	1.04	1	1.04	0.975	0.933	0.735	0.718	0.789	0.934	0.97	1.01	1.13	0.742	0.823	0.754	0.825	0.87	0.986	0.781
RERF-LC-KJ	1.03	1.12	0.941	0.972	0.875	0.638	0.717	0.715	0.704	0.979	0.989	1.08	1.1	0.634	0.761	0.729	0.881	0.982	0.862	0.913
CAL-12T	0.733	0.821	0.668	0.658	0.531	0.664	0.8	0.623	0.568	0.854	1.26	1.26	1.66	0.782	0.629	0.621	0.805	1.12	1.49	0.808
COR-L 105	0.738	0.843	0.696	0.683	0.683	0.811	0.879	0.802	1.05	1.02	0.884	0.703	0.719	0.601	0.861	0.795	0.972	1.24	0.817	0.922
NCI-H2405	0.916	–	0.898	0.97	0.838	1.03	0.961	0.925	1.12	0.812	0.742	0.641	0.73	–	0.847	0.867	0.855	1.02	0.97	–
NCI-H2228	0.552	0.676	0.819	0.666	0.723	–	0.63	0.587	0.496	1.2	1.35	1.18	1.03	0.693	0.474	0.586	0.417	0.524	0.972	0.428
